We go through 12 molecules from ChEMBL document CHEMBL1201862, “PubChem BioAssay data set” (2004).

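Each compound was tested at five concentrations against cells in 96-well plates for 48 hours. At the GI50, growth is halved.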 Calls of active or inactive are those of the source. No stated cut-off is given here; in the data, active = GI50 up to about 1.1 µM and inactive = higher.

Some test systems named below: A498; UO-31; HCC 2998; SF-295; OVCAR-5; TK-10; HCT-15; SK-MEL-2; CAKI-1; KM12; NCI/ADR-RES; OVCAR-8; OVCAR-3; SNB-75; UACC-257; SR; SK-MEL-28; NCI-H522; EKVX; BT-549.
Holding throughout (test): NCI tumour cell line growth inhibition, 48 h

`COc1ccc(CNc2nc(NCc3ccc(OC)cc3)nc(NC(C)C)n2)cc1`: the GI50 in the experiment on A498 was 4.79 µM (inactive); in the experiment with UO-31 it was 19.5 µM (inactive); in the experiment on HCC 2998, 28.6 µM (inactive); in the experiment with SF-295 it was 3.96 µM (inactive); in the experiment with OVCAR-5, 20.2 µM (inactive); in the experiment with TK-10 it was 17.9 µM (inactive). Moreover, the GI50 in the experiment on HCT-15 was 4.12 µM; in the experiment with SK-MEL-2, 6.5 µM (inactive); with CAKI-1, 20.3 µM (inactive); with KM12, 5.07 µM (inactive); in the experiment with NCI/ADR-RES it was 4.58 µM (inactive); in the experiment with OVCAR-8 it was 13.1 µM (inactive). Also, the GI50 is 3.33 µM (inactive) in the experiment with OVCAR-3; 7.08 µM (inactive) with SNB-75; 7.85 µM (inactive) in the experiment on UACC-257; 3.84 µM (inactive) in the experiment on SR; 46.8 µM (inactive) with SK-MEL-28; 3.03 µM (inactive) in the experiment with NCI-H522. Further, the GI50 in the experiment on EKVX is 25 µM (inactive).
Take `O=C(Nc1ccc(Br)cc1)c1c(-c2ccccc2)c2ccc(O)cc2oc1=O`: the GI50 in the experiment with A498, in the experiment on UO-31, with HCC 2998, with SF-295, with OVCAR-5 and in the experiment on TK-10 was > 10 µM (inactive) throughout. The GI50 with HCT-15 was > 10 µM; in the experiment on SK-MEL-2, > 10 µM (inactive); in the experiment on CAKI-1 it was > 10 µM (inactive); in the experiment with KM12, > 10 µM (inactive); with NCI/ADR-RES, > 10 µM (inactive); with OVCAR-8, > 10 µM (inactive). For the same molecule, the GI50 in the experiment with OVCAR-3, with SNB-75, with UACC-257, in the experiment with SR, in the experiment on SK-MEL-28 and in the experiment on NCI-H522 was > 10 µM (inactive) in each case. Also, the GI50 in the experiment on EKVX is > 10 µM (inactive).
In the case of `Cc1cc2ncc3c(=O)n(NS(=O)(=O)c4ccc(N)cc4)ccc3n2n1`, the GI50 in the experiment on A498 was 70.8 µM (inactive); in the experiment with UO-31, > 100 µM (inactive); in the experiment with SF-295, > 100 µM (inactive); with OVCAR-5 it was > 100 µM (inactive); in the experiment with TK-10, > 100 µM (inactive); in the experiment on HCT-15, > 100 µM. The GI50 in the experiment with SK-MEL-2, in the experiment on CAKI-1, with KM12, in the experiment with OVCAR-8, in the experiment with BT-549 and with OVCAR-3 was > 100 µM (inactive) each time. The GI50 with SNB-75, with UACC-257, with SK-MEL-28, in the experiment on NCI-H522 and with EKVX was > 100 µM (inactive) each time.
In the case of `CCCCN(CCCC)CCC(O)c1cc(-c2ccc(C(F)(F)F)cc2)nc(-c2ccc(C(F)(F)F)cc2)c1` (configuration not stated), the GI50 in the experiment with A498, in the experiment with UO-31, in the experiment with HCC 2998, in the experiment with SF-295, with OVCAR-5 and with TK-10 was > 100 µM (inactive) throughout. The GI50 in the experiment with HCT-15 was > 100 µM; in the experiment with SK-MEL-2, > 100 µM (inactive); in the experiment on CAKI-1, > 100 µM (inactive); in the experiment on NCI/ADR-RES it was > 100 µM (inactive); in the experiment on OVCAR-8 it was > 100 µM (inactive); with OVCAR-3, > 100 µM (inactive). In addition, the GI50 in the experiment on SNB-75, in the experiment on UACC-257, in the experiment with SR, with SK-MEL-28, in the experiment with NCI-H522 and in the experiment with EKVX was > 100 µM (inactive) throughout.
For the molecule `CCO[C@H]1C[C@@H](c2ccccc2)[C@]2(C)C[C@H](C(=O)OC)ON2O1`, the GI50 in the experiment with A498 was > 100 µM (inactive); in the experiment with UO-31, > 100 µM (inactive); in the experiment with SF-295 it was > 100 µM (inactive); in the experiment on OVCAR-5, > 100 µM (inactive); in the experiment with TK-10, > 100 µM (inactive); with HCT-15 it was > 100 µM. The GI50 in the experiment on SK-MEL-2, in the experiment on CAKI-1, in the experiment with KM12, in the experiment with NCI/ADR-RES, with OVCAR-8 and in the experiment with BT-549 was > 100 µM (inactive) each time. Moreover, the GI50 in the experiment on OVCAR-3, with UACC-257, with SK-MEL-28, in the experiment with NCI-H522 and with EKVX was > 100 µM (inactive) in each case.
On to `COc1ccc(/C(Cl)=C(\C=O)c2cc(OC)c(OC)c(OC)c2)cc1OC`, for which the GI50 in the experiment on A498 was 37.9 µM (inactive); in the experiment with UO-31, 16.8 µM (inactive); with HCC 2998, 26.4 µM (inactive); in the experiment on SF-295 it was 34.1 µM (inactive); in the experiment with OVCAR-5 it was 67.8 µM (inactive); with TK-10 it was 56.6 µM (inactive). Moreover, the GI50 with HCT-15 is 19.8 µM; with SK-MEL-2, 19.6 µM (inactive); with CAKI-1, 22.9 µM (inactive); with KM12, 24.8 µM (inactive); with NCI/ADR-RES it was 13.2 µM (inactive); in the experiment with OVCAR-8 it was 17.8 µM (inactive). Further, the GI50 in the experiment on OVCAR-3 is 27.7 µM (inactive); with SNB-75, 10.8 µM (inactive); in the experiment with UACC-257 it was 62.2 µM (inactive); in the experiment with SR it was > 100 µM (inactive); in the experiment on SK-MEL-28, 61.8 µM (inactive); in the experiment on NCI-H522 it was 7.38 µM (inactive). Besides, in the experiment on EKVX, the GI50 was 24.7 µM (inactive).
For `Cc1cc(NCCCCCCCCCC[n+]2c(C)cc(N)c3ccccc32)c2ccccc2n1`, the GI50 in the experiment on A498 is 2.08 µM (inactive); in the experiment with UO-31, 5.52 µM (inactive); with HCC 2998 it was 0.675 µM (active); with SF-295 it was 0.861 µM (active); with OVCAR-5, 4.2 µM (inactive); with TK-10 it was 1.82 µM (inactive). Further, the GI50 in the experiment with HCT-15 was 3.95 µM; in the experiment with SK-MEL-2, 1.87 µM (inactive); in the experiment on CAKI-1, 9.68 µM (inactive); in the experiment on KM12, 0.2 µM (active); with NCI/ADR-RES, 12.6 µM (inactive); in the experiment with OVCAR-8 it was 0.875 µM (active). Also, the GI50 in the experiment on BT-549 was 1.86 µM (inactive); in the experiment with OVCAR-3, 0.975 µM (active); in the experiment on SNB-75, 0.853 µM (active); in the experiment with UACC-257, 0.216 µM (active); with SK-MEL-28 it was 1.47 µM (inactive); with NCI-H522 it was 0.253 µM (active).
On to `CC(C)(Oc1ccc(Cl)cc1)C(=O)N(C(=O)N1CCCCC1)c1ccccc1`, for which the GI50 with A498 is 17 µM (inactive); in the experiment on UO-31 it was 10.8 µM (inactive); in the experiment on OVCAR-5 it was 12 µM (inactive); in the experiment on HCT-15, 6.28 µM; in the experiment with SK-MEL-2, 13.1 µM (inactive); in the experiment with CAKI-1 it was 14.4 µM (inactive). The GI50 in the experiment on KM12 was 5.87 µM (inactive); in the experiment with NCI/ADR-RES it was 14.5 µM (inactive); in the experiment with OVCAR-8, 14.1 µM (inactive); with BT-549 it was 15.4 µM (inactive); with OVCAR-3, 23.9 µM (inactive); with SK-MEL-28 it was 15.2 µM (inactive). The GI50 with EKVX is 2.45 µM (inactive).
Regarding `CC(C)(/N=N/C(C)(C)C1=NCCN1)C1=NCCN1`, the GI50 in the experiment with A498 is > 100 µM (inactive); in the experiment with UO-31, > 74 µM (inactive); in the experiment with HCC 2998 it was > 100 µM (inactive); with SF-295 it was > 100 µM (inactive); in the experiment on OVCAR-5, > 100 µM (inactive); in the experiment on TK-10 it was > 56 µM (inactive). Also, the GI50 is > 100 µM with HCT-15; > 100 µM (inactive) in the experiment on SK-MEL-2; > 83.9 µM (inactive) in the experiment with CAKI-1; > 100 µM (inactive) in the experiment with KM12; > 100 µM (inactive) in the experiment on NCI/ADR-RES; > 100 µM (inactive) in the experiment on OVCAR-8. The GI50 with BT-549, in the experiment with OVCAR-3, in the experiment on SNB-75, in the experiment on UACC-257, with SK-MEL-28 and in the experiment on EKVX was > 100 µM (inactive) each time.
As for `CO/N=C(\C(=O)Nn1cn[n+](CC(=O)[O-])c1)c1csc(N)n1`, the GI50 with HCC 2998 was > 10 µM (inactive); in the experiment on TK-10 it was > 10 µM (inactive); in the experiment on HCT-15, > 10 µM; with CAKI-1, > 10 µM (inactive); with KM12 it was > 10 µM (inactive); in the experiment on OVCAR-8 it was > 10 µM (inactive). The GI50 in the experiment on BT-549 is > 10 µM (inactive); with SNB-75 it was 9.25 µM (inactive); with UACC-257, > 10 µM (inactive); in the experiment with SR, > 10 µM (inactive); in the experiment with SK-MEL-28, > 10 µM (inactive); with EKVX it was > 10 µM (inactive).
`O=c1oc2cccnc2n1CCN1CCN(c2ccc(Oc3ccccc3)cc2)CC1`: the GI50 in the experiment on A498 is 40.9 µM (inactive); in the experiment with UO-31, 41.1 µM (inactive); in the experiment on HCC 2998, 52.8 µM (inactive); in the experiment with SF-295, 43 µM (inactive); in the experiment with OVCAR-5, > 100 µM (inactive); in the experiment on TK-10, 61.8 µM (inactive). Also, the GI50 with HCT-15 is 90.8 µM; in the experiment on SK-MEL-2, > 100 µM (inactive); with CAKI-1 it was > 100 µM (inactive); with NCI/ADR-RES it was 32.5 µM (inactive); in the experiment on OVCAR-8, > 100 µM (inactive); with OVCAR-3 it was 25.5 µM (inactive). For the same molecule, the GI50 with SNB-75 was 11.1 µM (inactive); in the experiment with UACC-257, 21.9 µM (inactive); with SR it was 8.71 µM (inactive); in the experiment with SK-MEL-28 it was > 100 µM (inactive); in the experiment on NCI-H522, 31.6 µM (inactive); with EKVX, > 100 µM (inactive).
Turning to `CCCCc1cc2c(cc1O)CCC1C2CC[C@@]2(C)C1CC[C@@H]2O` (some centres not stated), the GI50 is 21.8 µM (inactive) with A498; 14.5 µM (inactive) with UO-31; 19.9 µM (inactive) in the experiment with HCC 2998; 13.3 µM (inactive) in the experiment on SF-295; 17.7 µM (inactive) in the experiment with OVCAR-5; 18.3 µM (inactive) in the experiment on TK-10. The GI50 in the experiment on HCT-15 is 23.8 µM; with SK-MEL-2, 18.4 µM (inactive); in the experiment on CAKI-1, 16.6 µM (inactive); with KM12, 12.3 µM (inactive); in the experiment on NCI/ADR-RES, 18.7 µM (inactive); in the experiment with OVCAR-8, 15.3 µM (inactive). Besides, the GI50 was 13.7 µM (inactive) with OVCAR-3; 13 µM (inactive) with SNB-75; 15.4 µM (inactive) in the experiment on UACC-257; 21.4 µM (inactive) in the experiment on SR; 23 µM (inactive) with SK-MEL-28; 14 µM (inactive) in the experiment with NCI-H522. The GI50 in the experiment with EKVX is 14.8 µM (inactive).
